# Columns and labels:
# wild oat = assay: Test B postemergence herbicide test; type: in vivo, Avena fatua; settings: postemergence, visual rating, scale 0 (no effect) to 100 (complete control)
# Outline: (§1)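 Scale 0–100: zero equals no visible effect, 100 complete control, judged by eye relative to controls. Timing: 13 to 15 days in greenhouse post-treatment. Growth stage at spraying: two leaves (paddy) or one to four leaves, 2–18 cm (postemergence).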
# giant foxtail = assay: Test B pre-/postemergence herbicide test; type: in vivo, Setaria faberi; settings: for Foxtail, Giant plant response rating: postemergence, scale 0 (no effect) to 100 (complete control)
# Outline: (§2)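 Plants compared with untreated controls 13–15 days post-treatment and given a visual 0–100 injury score. Applications: preemergence to seeds; postemergence at 1- to 4-leaf (2–18 cm); paddy species flooded, 2-leaf stage. Vehicle non-phytotoxic, surfactant included.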
# lambsquarters = assay: Test B pre-/postemergence herbicide test; type: in vivo, Chenopodium album; settings: for Lambsquarters plant response rating: postemergence, scale 0 (no effect) to 100 (complete control)
# Outline: as §2
# blackgrass = assay: Test B postemergence herbicide test; type: in vivo, Alopecurus myosuroides; settings: postemergence, visual rating, scale 0 (no effect) to 100 (complete control)
# Outline: (§3)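 Read-out: visual comparison with controls, scored 0 to 100, where 100 means complete control and 0 no effect. Formulated chemicals were applied postemergence to plants 2–18 cm tall (1- to 4-leaf), or to flooded-paddy plants at the 2-leaf stage, then held 13 to 15 days under glass.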
# morningglory = assay: Test B pre-/postemergence herbicide test; type: in vivo, Ipomoea coccinea; settings: for Morningglory plant response rating: postemergence, scale 0 (no effect) to 100 (complete control)
# Outline: (§4)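 Pre: seeds sown, then sprayed. Post: 1–4-leaf plants (2–18 cm) sprayed at the same time. Paddy: flooded, treated at 2-leaf stage. Formulation: non-phytotoxic solvent with surfactant. Greenhouse 13–15 days; visual 0–100 score relative to controls.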
# barnyardgrass [1] = assay: Test B pre-/postemergence herbicide test; type: in vivo, Echinochloa crus-galli; settings: for Barnyardgrass plant response rating: postemergence, scale 0 (no effect) to 100 (complete control)
# Outline: as §4
# ducksalad = assay: Test B flooded paddy test; type: in vivo, Heteranthera limosa; settings: 1000 g ai/ha, visual rating, scale 0 to 100 (0 no effect, 100 complete control), 13 to 15 days
# Outline: as §3
# Surinam grass = assay: Test B pre-/postemergence herbicide test; type: in vivo, Urochloa decumbens; settings: for Surinam Grass plant response rating: postemergence, scale 0 (no effect) to 100 (complete control)
# Outline: as §2
# wheat = assay: Test B postemergence herbicide test; type: in vivo, Triticum aestivum; parameters: key to Wheat plant response rating: 0 = no effect, 100 = complete control; settings: postemergence, visual rating, scale 0 (no effect) to 100 (complete control)
# Outline: as §1
# large crabgrass = assay: Test B pre-/postemergence herbicide test; type: in vivo, Digitaria sanguinalis; settings: for Crabgrass, Large plant response rating: postemergence, scale 0 (no effect) to 100 (complete control)
# Outline: as §2
# rice = assay: Test B flooded paddy test; type: in vivo, Oryza sativa; settings: 1000 g ai/ha, visual rating, scale 0 to 100 (0 no effect, 100 complete control), 13 to 15 days
# Outline: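 Formulated test chemicals went onto postemergence plants measuring 2 to 18 cm, at one to four leaves. For the paddy assay, species had reached two leaves. Scoring took place 13–15 days later by eye, relative to untreated plants, using 0 for no effect up to 100 for full control.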
# pigweed = assay: Test B pre-/postemergence herbicide test; type: in vivo, Amaranthus retroflexus; settings: for Pigweed plant response rating: postemergence, scale 0 (no effect) to 100 (complete control)
# Outline: as §2
# [2] = system: small flower umbrella sedge; assay: Test B flooded paddy test; type: in vivo, Cyperus difformis; settings: 1000 g ai/ha, visual rating, scale 0 to 100 (0 no effect, 100 complete control), 13 to 15 days
# Outline: as §3
# barnyardgrass [3] = assay: Test B flooded paddy test; type: in vivo, Echinochloa crus-galli; settings: 1000 g ai/ha, visual rating, scale 0 to 100 (0 no effect, 100 complete control), 13 to 15 days
# Outline: as §3
# cocklebur = assay: Test B pre-/postemergence herbicide test; type: in vivo, Xanthium strumarium; settings: for Cocklebur plant response rating: postemergence, scale 0 (no effect) to 100 (complete control)
# Outline: as §4
# corn = assay: Test B pre-/postemergence herbicide test; type: in vivo, Zea mays; settings: for Corn plant response rating: postemergence, scale 0 (no effect) to 100 (complete control)
# Outline: as §2
# [4] = 125 g ai/ha, 0 = no effect, 100 = complete control, preemergence
# [5] = 500 g ai/ha, visual rating, 0 = no effect, 100 = complete control, preemergence
compound,measurement,setting,value
CCc1nn(C(C)(C)C)cc1C(=O)Nc1cc(C(=O)N(CC)CC)ccc1F [Compound 223],"Oat, Wild plant response rating",wild oat; 125 g ai/ha,0
same,"Oat, Wild plant response rating",wild oat; 500 g ai/ha,30
same,"Foxtail, Giant plant response rating (0 to 100 scale)",giant foxtail; [4],10
same,"Plant response rating, Foxtail, Giant",giant foxtail; [5],80
same,"Foxtail, Giant plant response rating","giant foxtail; 125 g ai/ha, visual rating",10
same,"Foxtail, Giant plant response rating","giant foxtail; 500 g ai/ha, visual rating",20
same,Lambsquarters plant response rating (0 to 100 scale),lambsquarters; [4],80
same,"Plant response rating, Lambsquarters",lambsquarters; [5],100
same,Lambsquarters plant response rating,"lambsquarters; 125 g ai/ha, visual rating",60
same,Lambsquarters plant response rating,"lambsquarters; 500 g ai/ha, visual rating",80
same,Blackgrass plant response rating,blackgrass; 125 g ai/ha,0
same,Blackgrass plant response rating,blackgrass; 500 g ai/ha,0
same,Morningglory plant response rating (0 to 100 scale),morningglory; [4],10
same,"Plant response rating, Morningglory",morningglory; [5],30
same,Morningglory plant response rating,"morningglory; 125 g ai/ha, visual rating",40
same,Morningglory plant response rating,"morningglory; 500 g ai/ha, visual rating",80
same,Barnyardgrass plant response rating (0 to 100 scale),barnyardgrass [1]; [4],20
same,"Plant response rating, Barnyardgrass",barnyardgrass [1]; [5],80
same,Barnyardgrass plant response rating,"barnyardgrass [1]; 125 g ai/ha, visual rating",10
same,Barnyardgrass plant response rating,"barnyardgrass [1]; 500 g ai/ha, visual rating",20
same,Ducksalad plant response rating,ducksalad,90
same,Surinam Grass plant response rating (0 to 100 scale),Surinam grass; [4],20
same,"Plant response rating, Surinam Grass",Surinam grass; [5],90
same,Surinam Grass plant response rating,"Surinam grass; 125 g ai/ha, visual rating",10
same,Surinam Grass plant response rating,"Surinam grass; 500 g ai/ha, visual rating",10
same,Wheat plant response rating,wheat; 125 g ai/ha,0
same,Wheat plant response rating,wheat; 500 g ai/ha,0
same,"Crabgrass, Large plant response rating (0 to 100 scale)",large crabgrass; [4],50
same,"Plant response rating, Crabgrass, Large",large crabgrass; [5],100
same,"Crabgrass, Large plant response rating","large crabgrass; 125 g ai/ha, visual rating",10
same,"Crabgrass, Large plant response rating","large crabgrass; 500 g ai/ha, visual rating",20
same,Rice plant response rating,rice,70
same,Pigweed plant response rating (0 to 100 scale),pigweed; [4],90
same,"Plant response rating, Pigweed",pigweed; [5],100
same,Pigweed plant response rating,"pigweed; 125 g ai/ha, visual rating",60
same,Pigweed plant response rating,"pigweed; 500 g ai/ha, visual rating",70
same,"Sedge, Umbrella plant response rating",[2],80
same,Barnyardgrass plant response rating,barnyardgrass [3],40
same,Cocklebur plant response rating (0 to 100 scale),cocklebur; [4],0
same,"Plant response rating, Cocklebur",cocklebur; [5],20
same,Cocklebur plant response rating,"cocklebur; 125 g ai/ha, visual rating",10
same,Cocklebur plant response rating,"cocklebur; 500 g ai/ha, visual rating",30
same,Corn plant response rating (0 to 100 scale),corn; [4],10
same,"Plant response rating, Corn",corn; [5],80
same,Corn plant response rating,"corn; 125 g ai/ha, visual rating",10
same,Corn plant response rating,"corn; 500 g ai/ha, visual rating",20
